From ChEMBL document CHEMBL4828758, “Elucidation of Distinct Modular Assemblies of Smoothened Receptor by Bitopic Ligand Measurement” (J Med Chem, 2021) come the findings set out here.

Holding throughout (format): functional, cell-based
Assay [1] has as its target Protein smoothened (Mus musculus) (UniProt P56726). The experiment in a line: Agonist activity at SMO in mouse NIH3T3 cells assessed as induction of SMO accumulation in primary cilia incubated for 12 hrs by AlexaFluor 488/ DAPI staining based immunofluorescence method.
For assay [2] the target is unchanged. The experiment in a line: Agonist activity at SMO in mouse NIH3T3 cells assessed as induction of SMO accumulation in primary cilia incubated for 12 hrs by fluorescence method. Particulars: filed as agonist.
The target is the same in assay [3]. Description: Agonist activity at SMO in mouse NIH3T3 cells assessed as fluorescent intensity of ciliary SMO incubated for 12 hrs by fluorescence method. Particulars: filed as agonist.
The target of assay [4] is T1, Protein smoothened (Mus musculus, UniProt P56726). The experiment in a line: (§1) Agonist activity at SMO in mouse NIH3T3 cells incubated for 2 hrs by Bright-Glo luciferase assay.
The target in assay [5] is T1, Protein smoothened. The experiment in a line: (§2) Antagonist activity at SMO in mouse NIH3T3 cells preincubated for 2 hrs followed by SAG stimulation and measured after 24 hrs by Bright-Glo luciferase assay.
Assay [6] deals with Protein smoothened (Mus musculus) (UniProt P56726). The description is as §2. Particulars: time 26.0 hrs.
For assay [7] the target is unchanged. The assay is described as §1.
The target is the same in assay [8]. The experiment in a line: Antagonist activity at SMO in mouse NIH3T3 cells preincubated for 2 hrs followed by SAG stimulation and measured after 24 hrs in presence of GDC0449 by Bright-Glo luciferase assay. Particulars: time 26.0 hrs.
For assay [9] the target is unchanged. Description: Agonist activity at SMO in mouse NIH3T3 cells preincubated for 2 hrs followed by SAG stimulation and measured after 24 hrs in presence of GDC0449 by Bright-Glo luciferase assay. Particulars: filed as agonist, time 26.0 hrs.
Assay [10] shares this target. The experiment in a line: Antagonist activity at SMO in mouse NIH3T3 cells preincubated for 2 hrs followed by ShhN stimulation and measured after 24 hrs in presence of GDC0449 by Bright-Glo luciferase assay. Particulars: filed as antagonist, time 26.0 hrs.

Active and inactive are the calls of the source. The rule behind the calls is not given here.

T1 sequence (P56726 whole entry): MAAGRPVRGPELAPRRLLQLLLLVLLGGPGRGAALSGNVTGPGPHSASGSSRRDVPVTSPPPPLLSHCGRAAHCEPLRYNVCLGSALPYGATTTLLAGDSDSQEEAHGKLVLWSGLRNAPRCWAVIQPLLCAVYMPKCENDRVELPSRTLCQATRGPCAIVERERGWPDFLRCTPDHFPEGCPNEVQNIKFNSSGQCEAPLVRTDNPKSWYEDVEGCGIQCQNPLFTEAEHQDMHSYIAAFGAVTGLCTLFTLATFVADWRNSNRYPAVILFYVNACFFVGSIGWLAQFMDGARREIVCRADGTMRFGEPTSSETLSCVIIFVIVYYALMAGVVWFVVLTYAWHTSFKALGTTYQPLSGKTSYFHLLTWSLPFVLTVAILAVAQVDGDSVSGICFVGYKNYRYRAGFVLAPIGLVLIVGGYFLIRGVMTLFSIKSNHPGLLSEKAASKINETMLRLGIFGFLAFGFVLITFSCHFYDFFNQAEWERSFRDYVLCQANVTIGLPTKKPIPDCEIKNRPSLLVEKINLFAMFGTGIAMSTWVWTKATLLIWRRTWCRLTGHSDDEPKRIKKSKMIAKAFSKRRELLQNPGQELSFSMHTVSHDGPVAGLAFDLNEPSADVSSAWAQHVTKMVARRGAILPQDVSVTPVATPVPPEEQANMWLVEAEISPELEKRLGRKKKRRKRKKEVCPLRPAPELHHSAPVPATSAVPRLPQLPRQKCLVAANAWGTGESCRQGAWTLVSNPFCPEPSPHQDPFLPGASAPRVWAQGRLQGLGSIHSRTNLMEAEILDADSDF
Chain of Protein smoothened (Mus musculus) (P56726 whole entry): as above

As usually defined, the EC50 is the midpoint of the concentration-response curve. High values mean lower potency in that assay, low ones higher potency in that assay. Turning to `CN[C@H]1CC[C@H](N(Cc2cccc(-c3ccnc(OCCOCCOCCOCCn4cc(COCCOCCCCCC[C@@H](C)C5CC[C@H]6[C@@H]7CC=C8C[C@@H](O)CC[C@]8(C)[C@H]7CC[C@]56C)nn4)c3)c2)C(=O)c2sc3ccccc3c2Cl)CC1` (some centres undefined), the outcome in [1] (filed as agonist), in [2] and in assay [3] was Active. In assay [4], the EC50 worked out at 200 nM.

With `CN[C@H]1CC[C@H](N(Cc2cccc(-c3ccnc(OCCOCCOCCOCCn4cc(COCCOCCOCC(=O)N5C[C@@H](C)C[C@H]6O[C@]7(CC[C@@H]8C(=C7C)C[C@H]7[C@H]8CC=C8C[C@@H](O)CC[C@@]87C)[C@H](C)[C@@H]65)nn4)c3)c2)C(=O)c2sc3ccccc3c2Cl)CC1`, the outcome in assay [1] (filed as agonist), in assay [2] and in assay [3] was Active.

Usually IC50 stands for the concentration needed to halve the response being measured. Read a high IC50 as weaker potency in that assay. `CC(O)(CCCCCCOCCOCCOCCOCCOCc1cn(CCOCCOCCOCCOCCOCCS(=O)(=O)c2ccc(C(=O)Nc3ccc(Cl)c(-c4ccccn4)c3)c(Cl)c2)nn1)C1CC[C@H]2[C@@H]3CC=C4C[C@@H](O)CC[C@]4(C)[C@H]3CC[C@]12C` (some centres undefined) yielded an IC50 in [5] of 20 nM. That is a double-digit nanomolar value.

In [5], `CC(O)(CCCCCCOCCOCc1cn(CCOCCOCCS(=O)(=O)c2ccc(C(=O)Nc3ccc(Cl)c(-c4ccccn4)c3)c(Cl)c2)nn1)C1CC[C@H]2[C@@H]3CC=C4C[C@@H](O)CC[C@]4(C)[C@H]3CC[C@]12C` (some centres undefined) showed a concentration for half-maximal inhibition (IC50) of 20 nM.

`[N-]=[N+]=NCCOCCOCCOCCOCCOCCS(=O)(=O)c1ccc(C(=O)Nc2ccc(Cl)c(-c3ccccn3)c2)c(Cl)c1` had an IC50 in [5] of 3000 nM. This IC50 lies about 150-fold higher than the previous one.

Regarding `CC(O)(CCCCCCOCc1cn(CCOCCS(=O)(=O)c2ccc(C(=O)Nc3ccc(Cl)c(-c4ccccn4)c3)c(Cl)c2)nn1)C1CC[C@H]2[C@@H]3CC=C4C[C@@H](O)CC[C@]4(C)[C@H]3CC[C@]12C` (some centres undefined), the result in [6] was inactive.

Regarding `CN[C@H]1CC[C@H](N(Cc2cccc(-c3ccnc(OCCOCCOCCOCCn4cc(COCCOCCCCCC[C@](C)(O)C5CC[C@H]6[C@@H]7CC=C8C[C@@H](O)CC[C@]8(C)[C@H]7CC[C@]56C)nn4)c3)c2)C(=O)c2sc3ccccc3c2Cl)CC1` (some centres undefined), the result in assay [1] (filed as agonist), in assay [2] and in assay [3] was Active. Further, the outcome in [7] was inactive.

The compound `CC(O)(CCCCCCOCCOCc1cn(CCOCCOCCOCCOCCS(=O)(=O)c2ccc(C(=O)Nc3ccc(Cl)c(-c4ccccn4)c3)c(Cl)c2)nn1)C1CC[C@H]2[C@@H]3CC=C4C[C@@H](O)CC[C@]4(C)[C@H]3CC[C@]12C` (some centres undefined) registered a half-inhibitory concentration (IC50) in assay [5] of 20 nM.

On to `CC(O)(CCCCCCOCCOCc1cn(CCOCCOCCOCCOCCOCCS(=O)(=O)c2ccc(C(=O)Nc3ccc(Cl)c(-c4ccccn4)c3)c(Cl)c2)nn1)C1CC[C@H]2[C@@H]3CC=C4C[C@@H](O)CC[C@]4(C)[C@H]3CC[C@]12C` (some centres undefined), for which the result in assay [1] and in assay [7] was inactive. The same compound yielded a half-maximal inhibitory concentration (IC50) in assay [5] of 20 nM.

In assay [5], `CC(O)(CCCCCCOCCOCc1cn(CCOCCOCCOCCS(=O)(=O)c2ccc(C(=O)Nc3ccc(Cl)c(-c4ccccn4)c3)c(Cl)c2)nn1)C1CC[C@H]2[C@@H]3CC=C4C[C@@H](O)CC[C@]4(C)[C@H]3CC[C@]12C` (some centres undefined) returned an IC50 of 20 nM.

For `C[C@H](CCCCCCOCCOCc1cn(CCOCCOCCOCCOCCOCCS(=O)(=O)c2ccc(C(=O)Nc3ccc(Cl)c(-c4ccccn4)c3)c(Cl)c2)nn1)C1CC[C@H]2[C@@H]3CC=C4C[C@@H](O)CC[C@]4(C)[C@H]3CC[C@]12C` (some centres undefined), the outcome in [1] was inactive.

As for `CN[C@H]1CC[C@H](N(Cc2cccc(-c3ccnc(OCCOCCOCCOCCOCCOCCn4cc(COCCOCCOCCOCCOCCOCCOCCCCCCC(C)(O)C5CC[C@H]6[C@@H]7CC=C8C[C@@H](O)CC[C@]8(C)[C@H]7CC[C@]56C)nn4)c3)c2)C(=O)c2sc3ccccc3c2Cl)CC1` (some centres undefined), in assay [7], the outcome was inactive.

As for `CN[C@H]1CC[C@H](N(Cc2cccc(-c3ccncc3)c2)C(=O)c2sc3ccccc3c2Cl)CC1`, the outcome in assay [2] and in assay [3] was Active. Further, the EC50 in assay [4] was found to be 16.9 nM.

For the compound `CN[C@H]1CC[C@H](N(Cc2cccc(-c3ccnc(OCCOCCOCCOCCn4cc(COCCOCCOCCOCCOCCOCCCCCC[C@](C)(O)C5CC[C@H]6[C@@H]7CC=C8C[C@@H](O)CC[C@]8(C)[C@H]7CC[C@]56C)nn4)c3)c2)C(=O)c2sc3ccccc3c2Cl)CC1` (some centres undefined), the result in [7] was inactive.

With `CN[C@H]1CC[C@H](N(Cc2cccc(-c3ccnc(OCCn4cc(COCCCCCCC[C@](C)(O)[C@H]5CC[C@H]6[C@@H]7CC=C8C[C@@H](O)CC[C@]8(C)[C@H]7CC[C@@]65C)nn4)c3)c2)C(=O)c2sc3ccccc3c2Cl)CC1`, the result in assay [7] was inactive.

Consider `CC1=C2C[C@H]3[C@@H](CC=C4C[C@@H](O)CC[C@@]43C)[C@@H]2CC[C@]12O[C@@H]1C[C@H](C)CN[C@H]1[C@H]2C`, for which the result in assay [2] and in [3] was Active.

`CC(O)(CCCCCCOCCOCCOCCOCCOCCOCCOCc1cn(CCOCCOCCOCCOCCOCCS(=O)(=O)c2ccc(C(=O)Nc3ccc(Cl)c(-c4ccccn4)c3)c(Cl)c2)nn1)C1CC[C@H]2[C@@H]3CC=C4C[C@@H](O)CC[C@]4(C)[C@H]3CC[C@]12C` (some centres undefined) returned a half-maximal inhibitory concentration (IC50) in assay [5] of 20 nM.

For the compound `CN[C@H]1CC[C@H](N(Cc2cccc(-c3ccnc(OCCOCCOCCOCCn4cc(COCCOCCOCCOCCOCCOCCOCCCCCC[C@](C)(O)C5CC[C@H]6[C@@H]7CC=C8C[C@@H](O)CC[C@]8(C)[C@H]7CC[C@]56C)nn4)c3)c2)C(=O)c2sc3ccccc3c2Cl)CC1` (some centres undefined), in assay [7], the result was inactive.

In turn, `CC(O)(CCCCCCOCCOCCOCCOCCOCCOCCOCCOCCOCc1cn(CCOCCOCCOCCOCCOCCS(=O)(=O)c2ccc(C(=O)Nc3ccc(Cl)c(-c4ccccn4)c3)c(Cl)c2)nn1)C1CC[C@H]2[C@@H]3CC=C4C[C@@H](O)CC[C@]4(C)[C@H]3CC[C@]12C` (some centres undefined) came in with a concentration for half-maximal inhibition (IC50) in assay [5] of 20 nM.

In the case of `CN[C@H]1CC[C@H](N(Cc2cccc(-c3ccnc(OCCOCCn4cc(COCCCCCC[C@](C)(O)[C@H]5CC[C@H]6[C@@H]7CC=C8C[C@@H](O)CC[C@]8(C)[C@H]7CC[C@@]65C)nn4)c3)c2)C(=O)c2sc3ccccc3c2Cl)CC1`, the outcome in [7] was inactive.

As to `CN[C@H]1CC[C@H](N(Cc2cccc(-c3ccnc(OCCOCCOCCOCCn4cc(COCCOCCC#CCCC(C)(O)C5CC[C@H]6[C@@H]7CC=C8C[C@@H](O)CC[C@]8(C)[C@H]7CC[C@]56C)nn4)c3)c2)C(=O)c2sc3ccccc3c2Cl)CC1` (some centres undefined), the outcome in assay [1] (filed as agonist), in assay [2] and in assay [3] was Active.

On to `CC(C)CCC[C@](C)(O)[C@H]1CC[C@H]2[C@@H]3CC=C4C[C@@H](O)CC[C@]4(C)[C@H]3CC[C@@]21C`, for which the result in assay [1] (filed as agonist), in assay [2], in assay [3], in assay [9] and in assay [10] was Active. For the same compound, the result in assay [8] was inactive.

With `CC(O)(CCCCCCOCCOCc1cn(CCOCCS(=O)(=O)c2ccc(C(=O)Nc3ccc(Cl)c(-c4ccccn4)c3)c(Cl)c2)nn1)C1CC[C@H]2[C@@H]3CC=C4C[C@@H](O)CC[C@]4(C)[C@H]3CC[C@]12C` (some centres undefined), the result in assay [6] was inactive.

Turning to `CC(O)(CCCCCCOCCOCCOCc1cn(CCOCCOCCOCCOCCOCCS(=O)(=O)c2ccc(C(=O)Nc3ccc(Cl)c(-c4ccccn4)c3)c(Cl)c2)nn1)C1CC[C@H]2[C@@H]3CC=C4C[C@@H](O)CC[C@]4(C)[C@H]3CC[C@]12C` (some centres undefined), the half-inhibitory concentration (IC50) in assay [5] stood at 20 nM.
